Reference: patent US8933099B2, “Monocyclic pyridine derivative” (Eisai R&D Management Co., Ltd., priority 2013, dated 2015)

Experiments:
[1] = tested on: normal human umbilical vein endothelial cells (HUVEC); assay: HUVEC growth inhibition assay (VEGF-induced); type: cell-based; conditions: Homo sapiens, HUVEC, 72 h, read-out: HUVEC (IC50 (nM)), growth in the presence of VEGF 10 ng/mL, 3 days
Description: The absorbance value was measured with ENVISION™ (PerkinElmer Co., Ltd.) at 450 nm. The absorbance values of the wells without adding the test substance but with VEGF addition was defined as 100% and the absorbance values of the wells with neither the test substance nor VEGF addition was defined as 0%.

[2] = tested on: human stomach cancer cell line SNU-16 (FGFR2 gene amplification); assay: SNU-16 growth inhibition assay; type: cell-based; conditions: Homo sapiens, SNU-16, 72 h, read-out: SNU-16 (IC50 (nM)), cell growth, 3 days, Cell Counting Kit-8
Description: In this assay, the growth inhibitory activity of a test substance in a human stomach cancer cell line harboring FGFR2 gene amplification is measured.
Then, 10 μL of Cell Counting Kit-8 (Dojindo Laboratories, CK04) was added to each well, and the resultant was incubated for 1 to 2 hours in a 5% CO2 incubator (37° C.) to cause a color reaction. The absorbance value was measured with ENVISION™ (PerkinElmer Co., Ltd.) at 450 nm.

Structure (SMILES) | IC50 [1] [nM] | IC50 [2] [nM]
CCOCCOc1cc2c(ccn2C(=O)NC)cc1Oc1ccnc(NC(=O)c2ccc(C3CN(C(C)C)C3)cc2)c1 [Example 103] | 296 | 5.4
CCOCCOc1cc2c(ccn2C(=O)NC)cc1Oc1ccnc(NC(=O)c2ccc(CN3CCC[C@@H]3CO)cc2)c1 [Example 104] | 600 | 13.7
CCOCCOc1cc2c(ccn2C(=O)NC)cc1Oc1ccnc(NC(=O)c2ccc(CN3CC[C@H](O)C3)cc2)c1 [Example 105] | 687 | 7.8
CCOCCOc1cc2c(ccn2C(=O)NC)cc1Oc1ccnc(NC(=O)c2ccc(CN3CCC(F)CC3)cc2)c1 [Example 107] | 907 | 22
CCOCCOc1cc2c(ccn2C(=O)NC)cc1Oc1ccnc(NC(=O)c2ccc(CN3CCN(CC)CC3)cc2)c1 [Example 108] | 363 | 14.7
CCOCCOc1cc2c(ccn2C(=O)NC)cc1Oc1ccnc(NC(=O)c2ccc(C3CCN(C[C@@H](C)O)CC3)cc2)c1 [Example 111] | 195 | 5.1
CCOCCOc1cc2c(ccn2C(=O)NC)cc1Oc1ccnc(NC(=O)c2ccc(C3CCN(C[C@H](C)O)CC3)cc2)c1 [Example 112] | 202 | 3.8
CCOCCOc1cc2c(ccn2C(=O)NC)cc1Oc1ccnc(NC(=O)c2ccc(CN3CCC(O)CC3)cc2)c1 [Example 115] | 616 | 11.4
CNC(=O)n1ccc2cc(Oc3ccnc(NC(=O)c4ccc(CN5CCC[C@H]5CO)cc4)c3)c(OCCCOC)cc21 [Example 117] | 534 | 16.6
CNC(=O)n1ccc2cc(Oc3ccnc(NC(=O)c4ccc(C5CN(C[C@@H](C)O)C5)cc4)c3)c(OCCCOC)cc21 [Example 118] | 183 | 8.6
CNC(=O)n1ccc2cc(Oc3ccnc(NC(=O)c4ccc(C5CN(C[C@H](C)O)C5)cc4)c3)c(OCCCOC)cc21 [Example 119] | 242 | 11.9
CNC(=O)n1ccc2cc(Oc3ccnc(NC(=O)c4ccc(CN5CC[C@@H](O)C5)cc4)c3)c(OCCCOC)cc21 [Example 121] | 518 | 14.9
CNC(=O)n1ccc2cc(Oc3ccnc(NC(=O)c4ccc(CN5CCC(O)CC5)cc4)c3)c(OCCCOC)cc21 [Example 122] | 494 | 11.3
CNC(=O)n1ccc2cc(Oc3ccnc(NC(=O)c4ccc(C5CCN(C[C@@H](C)O)CC5)cc4)c3)c(OCCCOC)cc21 [Example 125] | 203 | 7.2
CNC(=O)n1ccc2cc(Oc3ccnc(NC(=O)c4ccc(C5CCN(C[C@H](C)O)CC5)cc4)c3)c(OCCCOC)cc21 [Example 126] | 197 | 6.6
CNC(=O)n1ccc2cc(Oc3ccnc(NC(=O)c4ccc(C5CCN(C)CC5)cc4)c3)c(OCCCOC)cc21 [Example 130] | 254 | 6.8
